T1: ENOX2 (Homo sapiens, UniProt Q16206)
T1 sequence (Q16206 1-610): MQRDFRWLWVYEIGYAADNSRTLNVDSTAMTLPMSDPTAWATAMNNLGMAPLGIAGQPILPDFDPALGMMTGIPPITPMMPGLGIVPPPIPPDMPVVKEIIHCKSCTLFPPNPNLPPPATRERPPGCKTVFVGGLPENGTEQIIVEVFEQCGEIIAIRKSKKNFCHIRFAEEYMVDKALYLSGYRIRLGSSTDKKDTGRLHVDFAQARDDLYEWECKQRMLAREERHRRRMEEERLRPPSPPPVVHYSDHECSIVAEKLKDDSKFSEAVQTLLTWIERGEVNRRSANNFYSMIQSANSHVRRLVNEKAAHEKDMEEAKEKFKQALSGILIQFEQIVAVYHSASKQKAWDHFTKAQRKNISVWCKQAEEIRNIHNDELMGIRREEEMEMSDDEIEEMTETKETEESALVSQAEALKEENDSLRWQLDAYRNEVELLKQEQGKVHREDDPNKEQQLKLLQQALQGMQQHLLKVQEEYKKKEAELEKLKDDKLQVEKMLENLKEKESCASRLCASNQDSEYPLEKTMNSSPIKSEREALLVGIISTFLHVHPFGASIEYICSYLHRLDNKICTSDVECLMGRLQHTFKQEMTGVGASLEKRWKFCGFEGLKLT

B1: recombinant scFv: pan ENOX2 recombinant single chain variable region (scFv) antibody carrying an S tag, alkaline phosphatase linked (antibody, V domains shown)
VH: EVKLQESGTEVVKPGASVKLSCKASGYIFTSYDIDWVRQTPEQGLEWIGWIFPGEGSTEYNEKFKGRATLSVDKSSSTAYMELTRLTSEDSAVYFCARGDYYRRYFDLWGQGTTVTVSS
VL: ENVLTQSPAIMSASPGERVTMTCSASSSIRYIYWYQQKPGSSPRLLIYDTSNVAPGVPFRFSGSGSGTSYSLTINRMEAEDAATYYCQEWSGYPYTFGGGTKLELK
modifications: left off: things letters cannot carry; another chain or arm of the molecule; a dimerising Fc or GST; small tags and cut ends
notes: pan ENOX2 recombinant single chain variable region (scFv) antibody carrying an S tag, alkaline phosphatase linked

Key:
[1] = biological target: T1, ENOX2; assay: ENOX2 activity versus NADH concentration, Lineweaver-Burke plot with and without antibody; format: biochemical; details: FIG. 2
Text: FIG. 2 is a graph that depicts the relationship of ENOX2 activity and concentration of NADH.

[2] = biological target: T1, ENOX2; assay: 2-D gel electrophoresis/western blot, incubation with 15 μM NADH compared to no NADH; details: 15 μM NADH in the assay compared to no NADH, FIG. 1
Experimental: In order to maintain an active ENOX2 during western blotting with antibody, following blocking for 10 minutes with 1% milk and two rinses with TBST to remove excess milk, reduced pyridine nucleotides [NAD(P)H] were added at a concentration of 15 μM during incubation with the primary scFv antibody. NADH is preferred at a final concentration in the range of 10 μM. Incubation of the blot with antibody with or without shaking at any temperature between 4° C. and 40° C. for times of 1 to 16 hours depending on the concentration of NADH, the temperature and the antibody titer, preferably with incubation at 4° C. overnight (approximately 16 hours) with shaking.

[3] = tested on: heavy (ca. 52 kDa) and light (ca. 25 kDa) immunoglobulin chain proteins; assay: 2-D gel/western blot cross-reactivity with serum proteins; format: binding, human; details: on some blots
Text: Separation in the first dimension was by isoelectric focusing over the pH range of 3 to 10 and separation in the second dimension was by 10 percent SDS-PAGE. Isoelectric points of the ENOX2 transcript variants were in the range of 3.2 to 6.3. The principal reactive proteins other than the ENOX2 forms were a 53 kDa isoelectric point pH 4.1, mostly phosphorylated alpha-fetuin (Labeled “R” in FIG. 8) which served as a convenient loading control and isoelectric point reference and a 79-85 kDa, isoelectric point pH 6.8 serotransferrin which served as a second point of reference for loading and as an isoelectric point reference. The two cross reactive reference proteins are present in a majority of sera and plasma of both cancer and non-cancer subjects.
For western blot analysis, 30 μL of sera was added to 120 μL of Rehydration Buffer (7M urea, 2 M thiourea, 2% (w/v) CHAPS [(3-[(3-cholamidopropyl)dimethylammonio]-1-propane-sulfonate), a nondenaturing zwitterionic detergent], 0.5% (w/v) ASB-14 (amidosulfobetaine-14, a zwitterionic detergent), 0.5% (v/v) ampholytes pH 3-10 (Bio-Rad), 0.5% (v/v) immobilized pH gradient (IPG) buffer pH 3-10 (Amersham-Pharmacia Biotech) and 65 mM dithiothreitol). The samples were quickly vortexed to mix sera with Rehydration Buffer. Four to six mg of protein were loaded for analysis. […] Quantitation utilized an algorithm developed for this purpose. […]

| Molecule | NADH concentration at which maximum ENOX2 activity was achieved [1] | increase in spot size and density of ENOX2 [2] | cross-reactivity with immunoglobulin chain proteins [3] |
| --- | --- | --- | --- |
| NC(=O)C1=CN([C@@H]2O[C@H](COP(=O)(O)OP(=O)(O)OC[C@H]3O[C@@H](n4cnc5c(N)ncnc54)[C@H](O)[C@@H]3O)[C@@H](O)[C@H]2O)C=CC1 [NADH] | about 500 μM | two-fold increase | – |
| B1 | – | – | weakly cross-reactive |

Reference: patent publication US9612243B1, “Methods and compositions for targeted two-dimensional western blot analysis for early cancer detection and cancer diagnosis up to ten years in advance of clinical symptoms of malignant disease” (Mor-NuCo Enterprises, Inc., priority 2016, dated 2017)
